Tests used:
CYP1A1 = target: T1, CYP1A1 (Homo sapiens, UniProt P04798); assay: Inhibition of recombinant CYP1A1 microsomal EROD activity; assay type: biochemical; settings: microsomes expressing recombinant CYP1A1, pH 7.4, probe 7-ethoxyresorufin (100 μM); 30 μM agent; incubates without drug = 100% activity; mean of three, s.d. <10%; read-out: Microsomal CYP1A1 EROD activity (% control)
T1 sequence (P04798 1-512): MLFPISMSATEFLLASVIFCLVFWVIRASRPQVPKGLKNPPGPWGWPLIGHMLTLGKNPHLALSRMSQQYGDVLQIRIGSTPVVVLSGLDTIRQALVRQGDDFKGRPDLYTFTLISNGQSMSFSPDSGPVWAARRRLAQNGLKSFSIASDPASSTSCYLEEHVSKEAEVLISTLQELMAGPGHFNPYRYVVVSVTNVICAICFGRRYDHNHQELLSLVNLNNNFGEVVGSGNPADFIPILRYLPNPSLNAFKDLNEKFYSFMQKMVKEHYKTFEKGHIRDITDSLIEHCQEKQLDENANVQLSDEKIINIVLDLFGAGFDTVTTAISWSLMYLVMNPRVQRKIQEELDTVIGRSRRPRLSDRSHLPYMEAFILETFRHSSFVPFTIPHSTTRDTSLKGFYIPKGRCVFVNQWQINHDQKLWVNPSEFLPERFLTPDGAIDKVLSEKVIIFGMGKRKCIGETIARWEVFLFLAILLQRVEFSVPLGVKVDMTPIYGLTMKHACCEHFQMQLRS
Experimental: A sensitive and rapid fluorometric assay was used to measure EROD activity ([Burke et al, 1994]). Incubation mixtures (total 1 ml) consisted of 100 mM Tris-HCl (pH 7.4), 50 μM MgCl2, 100 μM 7-ethoxyresorufin and 100 μl cell homogenate. Homogenates were prepared following treatment of cells for 24 h with compounds 1, 2, 2a, 2b, 3, 3a, 3b, 4, 4a and 4b or vehicle alone and protein content determined (n=3). Thus induction of ethoxyresorufin O-deethylation by agents under study, catalysed by CYP1A1 activity, could be determined. Alternatively, microsomes expressing recombinant CYP1A1 (0.1 mg ml^−1) provided the enzyme source for EROD catalysis, in the presence or absence of drug, in order to determine inhibition of CYP1A1 activity by compounds 1, 2, 2a, 2b, 3, 3a, 3b, 4, 4a and 4b. Incubation mixtures were pre-incubated for 5 min at 37°C before initiation of reaction by addition of NADPH (500 μM). Following further incubations at 37°C (30 min for cell homogenates, 15 min for CYP1A1 microsomes), reactions were terminated by addition of 3 ml ice-cold acetonitrile. Reaction mixtures were centrifuged (1400 r.p.m., 10 min) before analyses of supernatants. Fluorescence was read on a Perkin-Elmer LS-5 luminescence spectrometer (excitation, 530 nm; emission 585 nm). Estimation of resorufin reaction product (pmoles mg^−1 protein, pmoles 100 μg^−1 microsomes), as a measure of CYP1A1 activity, was determined following performance of a resorufin standard curve.

K-562 = assay: NCI in vitro cytotoxicity assay (SRB), K-562; assay type: cell-based; settings: Homo sapiens, K562; 48 h exposure, sulforhodamine B assay, mean graph; read-out: Log10 GI50 (K-562) (converted)
Experimental: (§1) Cell culture and drug application procedures have been described previously ([Boyd and Paull, 1995]). Briefly, cell lines were inoculated into a series of 96-well microtiter plates, with varied seeding densities depending on growth characteristics of each cell line. Following a 24 h drug free incubation, test agents were added at five 10-fold dilutions with a maximum concentration of 100 μM. Cellular protein levels were determined after 48 h drug exposure by sulphorhodamine B colorimetry.

MOLT-4 = assay: NCI in vitro cytotoxicity assay (SRB), MOLT-4; assay type: cell-based; settings: Homo sapiens, 48 h exposure, sulforhodamine B assay, mean graph, read-out: Log10 GI50 (MOLT-4) (converted)
Experimental: as §1

HOP-92 = assay: NCI in vitro cytotoxicity assay (SRB), HOP-92; assay type: cell-based; settings: Homo sapiens, 48 h exposure, sulforhodamine B assay, mean graph, read-out: Log10 GI50 (HOP-92) (converted)
Experimental: as §1

NCI-460 = assay: NCI in vitro cytotoxicity assay (SRB), NCI-460; assay type: cell-based; settings: Homo sapiens, 48 h exposure, sulforhodamine B assay, mean graph, read-out: Log10 GI50 (NCI-460) (converted)
Experimental: as §1

COLO 205 = assay: NCI in vitro cytotoxicity assay (SRB), COLO 205; assay type: cell-based; settings: Homo sapiens, 48 h exposure, sulforhodamine B assay, mean graph, read-out: Log10 GI50 (COLO 205) (converted)
Experimental: as §1

SW-620 = assay: NCI in vitro cytotoxicity assay (SRB), SW-620; assay type: cell-based; settings: Homo sapiens, 48 h exposure, sulforhodamine B assay, mean graph, read-out: Log10 GI50 (SW-620) (converted)
Experimental: as §1

SNB-19 = assay: NCI in vitro cytotoxicity assay (SRB), SNB-19; assay type: cell-based; settings: Homo sapiens, 48 h exposure, sulforhodamine B assay, mean graph, read-out: Log10 GI50 (SNB-19) (converted)
Experimental: as §1

M14 = assay: NCI in vitro cytotoxicity assay (SRB), M14; assay type: cell-based; settings: Homo sapiens, 48 h exposure, sulforhodamine B assay, mean graph, read-out: Log10 GI50 (M14) (converted)
Experimental: as §1

SK-MEL-5 = assay: NCI in vitro cytotoxicity assay (SRB), SK-MEL-5; assay type: cell-based; settings: Homo sapiens, 48 h exposure, sulforhodamine B assay, mean graph, read-out: Log10 GI50 (SK-MEL-5) (converted)
Experimental: as §1

A498 = assay: NCI in vitro cytotoxicity assay (SRB), A498; assay type: cell-based; settings: Homo sapiens, 48 h exposure, sulforhodamine B assay, mean graph, read-out: Log10 GI50 (A498) (converted)
Experimental: as §1

RXF 393 = assay: NCI in vitro cytotoxicity assay (SRB), RXF 393; assay type: cell-based; settings: Homo sapiens, 48 h exposure, sulforhodamine B assay, mean graph, read-out: Log10 GI50 (RXF 393) (converted)
Experimental: as §1

MDA-MB-231/ATCC = assay: NCI in vitro cytotoxicity assay (SRB), MDA-MB-231/ATCC; assay type: cell-based; settings: Homo sapiens, 48 h exposure, sulforhodamine B assay, mean graph, read-out: Log10 GI50 (MDA-MB-231/ATCC) (converted)
Experimental: as §1

MDA-MB-435 = assay: NCI in vitro cytotoxicity assay (SRB), MDA-MB-435; assay type: cell-based; settings: Homo sapiens, 48 h exposure, sulforhodamine B assay, mean graph, read-out: Log10 GI50 (MDA-MB-435) (converted)
Experimental: as §1

T-47D = assay: NCI in vitro cytotoxicity assay (SRB), T-47D; assay type: cell-based; settings: Homo sapiens, T47D; 48 h exposure, sulforhodamine B assay, mean graph; read-out: Log10 GI50 (T-47D) (converted)
Experimental: as §1

activity at 15 min, 30 μM (CYP1A1) | Structure (SMILES) | GI50 (K-562) | GI50 (MOLT-4) | GI50 (HOP-92) | GI50 (NCI-460) | GI50 (COLO 205) | GI50 (SW-620) | GI50 (SNB-19) | GI50 (M14) | GI50 (SK-MEL-5) | GI50 (A498) | GI50 (RXF 393) | GI50 (MDA-MB-231/ATCC) | GI50 (MDA-MB-435) | GI50 (T-47D)
30.4% | Cc1cc(-c2nc3cc(F)ccc3s2)ccc1N [Compound 2, 2-(4-Amino-3-methylphenyl)-5-fluorobenzothiazole] | > 100 µM | > 100 µM | 36.3 µM | < 0.01 µM | 66.1 µM | > 100 µM | 26.3 µM | 33.9 µM | > 100 µM | 2.82 µM | 32.4 µM | 17.4 µM | > 100 µM | < 0.01 µM
38.5% | Cc1cc(-c2nc3cc(F)ccc3s2)ccc1NC(=O)[C@@H](N)CCCCN [Compound 2b] | 2.29 µM | 1 µM | 15.1 µM | 0.0708 µM | 3.31 µM | 3.63 µM | 13.5 µM | 2.14 µM | 15.5 µM | 12.6 µM | 7.24 µM | 3.55 µM | 1.91 µM | < 0.01 µM

Source: publication PMC2375326, “In vitro evaluation of amino acid prodrugs of novel antitumour 2-(4-amino-3-methylphenyl)benzothiazoles” (British Journal of Cancer, 2002)
